Laboratory results from US20090318396A1, “CORTICOSTEROID LINKED BETA-AGONIST COMPOUNDS FOR USE IN THERAPY” (priority 2008, published 2009).

Legend:
[1] = tested on: Ascaris suum antigen-induced bronchoconstriction and airway hyperreactivity; assay: Ascaris suum-induced pulmonary responses in sheep; assay type: in vivo
Description: One breath unit is defined as one breath of a 1% w/v carbachol solution. Test article was administered either by a pre-dosing or duration of action protocol. In the pre-dosing regimen, animals were dosed once daily for four days, with the last dose administered 1 hr before antigen. In the duration of action regimen, animals were dosed once daily for four days, with the last dose administered 24 hours before antigen. Test article, Ascaris antigen, and carbachol were administered by nebulized aerosol to intubated sheep.

[2] = tested on: airway epithelial cells cultured at an air-liquid interface; assay: Drug metabolism in airway epithelial cells cultured at an air-liquid interface; assay type: in vitro ADME, human
Description: Cryopreserved passage 1 cells were cultured in bronchial epithelial growth medium (Fulcher, M. L., et al., Well-differentiated human airway epithelial cell cultures. Methods Mol Med, 2005. 107: p. 183-206) on 100 mm Type I collagen-coated plastic dishes. At 70% confluence, passage 2 cells were transferred to type IV collagen-coated Millicell membranes (Millipore, Bedford, Mass.) in medium that supports growth at an air-liquid-interface (ALI) (Fulcher er al., 2005). Cells were maintained at an ALI and allowed to differentiate fully for approximately 28 days. […] Approximately 1 hour prior to the start of the experiment, the apical surfaces of the cells were washed once again with PBS and the basolateral media replaced with fresh ALI media. At time=0 hrs, the test article was diluted from a 10 mM stock solution in DMSO to a 40 μM solution in ALI media/PBS/10% EtOH/water (v/v). 50 μl of the resulting 40 μM solution was immediately added to the apical surface of the cells. 200 μl of the dosing solution was also added to 800 μl of 100% ACN and frozen immediately on dry ice. The remaining dosing solution was placed in the incubator with the cells. The dosing solution and cells were allowed to incubate for 10, 120 and 240 min at which points the apical surfaces of cells from 4 millicell cell culture inserts (n=4) were washed with 3×100 μl of PBS or 10% EtOH/water (v/v) per millicell. […]

CC[N+](CC)(CC(=O)OCC(=O)[C@@]12O[C@H](C3CCCCC3)O[C@@H]1C[C@H]1[C@@H]3CCC4=CC(=O)C=C[C@]4(C)[C@H]3[C@@H](O)C[C@@]12C)Cc1cc(C(O)CNCCCCCCOCCCCc2ccccc2)ccc1OP(=O)(O)O.[Cl-] (stereo partly drawn) [Example 52, [5-[1-hydroxy-2-[6-(4-phenylbutoxy)hexylamino]ethyl]-2-phosphonooxybenzyl]-(diethyl)-[[11β,16α]-[[15,16-((R)-cyclohexylmethylene)bis(oxy)]-11-hydroxypregna-1,4-diene-3,20-dion-21-yl]carbonylmethyl]ammonium chloride]
Bronchoconstriction, Lung Resistance (% Increase) ([1]; Duration of action regimen (last dose 24 hours before antigen), Post-Ascaris, Example 52 4.7 mg, ciclesonide 2.2 mg, salmeterol xinafoate 2.5 mg, n=4): 226 % Increase
Bronchoconstriction, Lung Resistance (% Increase) ([1]; Duration of action regimen, 1 hour, n=4): 95 % Increase
Bronchoconstriction, Lung Resistance (% Increase) ([1]; Duration of action regimen, 2 hours, n=4): 47 % Increase
Bronchoconstriction, Lung Resistance (% Increase) ([1]; Duration of action regimen, 3 hours, n=4): 17 % Increase
Bronchoconstriction, Lung Resistance (% Increase) ([1]; Duration of action regimen, 4 hours, n=4): 14 % Increase
Bronchoconstriction, Lung Resistance (% Increase) ([1]; Duration of action regimen, 5 hours, n=4): 25 % Increase
Bronchoconstriction, Lung Resistance (% Increase) ([1]; Duration of action regimen, 6 hours, n=4): 31 % Increase
Bronchoconstriction, Lung Resistance (% Increase) ([1]; Duration of action regimen, 6.5 hours, n=4): 26 % Increase
Bronchoconstriction, Lung Resistance (% Increase) ([1]; Duration of action regimen, 7 hours, n=4): 26 % Increase
Bronchoconstriction, Lung Resistance (% Increase) ([1]; Duration of action regimen, 7.5 hours, n=4): 20 % Increase
Bronchoconstriction, Lung Resistance (% Increase) ([1]; Duration of action regimen, 8 hours, n=4): 22 % Increase
Hyperreactivity PC400 ([1]; Duration of action regimen, Baseline, Example 52 4.7 mg, ciclesonide 2.2 mg, salmeterol xinafoate 2.5 mg, n=4): 27.8 carbachol breath units
Hyperreactivity PC400 ([1]; Duration of action regimen, Post-Antigen, n=4): 28 carbachol breath units
Bronchoconstriction, Lung Resistance (% Increase) ([1]; Predosing regimen (last dose 1 hr before antigen), Post-Ascaris, Example 52 4.7 mg, ciclesonide 2.2 mg, n=2): 220 % Increase
Bronchoconstriction, Lung Resistance (% Increase) ([1]; Predosing regimen, 1 hour, n=2): 118 % Increase
Bronchoconstriction, Lung Resistance (% Increase) ([1]; Predosing regimen, 2 hours, n=2): 69 % Increase
Bronchoconstriction, Lung Resistance (% Increase) ([1]; Predosing regimen, 3 hours, n=2): 34 % Increase
Bronchoconstriction, Lung Resistance (% Increase) ([1]; Predosing regimen, 4 hours, n=2): 9 % Increase
Bronchoconstriction, Lung Resistance (% Increase) ([1]; Predosing regimen, 5 hours, n=2): 24 % Increase
Bronchoconstriction, Lung Resistance (% Increase) ([1]; Predosing regimen, 6 hours, n=2): 34 % Increase
Bronchoconstriction, Lung Resistance (% Increase) ([1]; Predosing regimen, 6.5 hours, n=2): 19 % Increase
Bronchoconstriction, Lung Resistance (% Increase) ([1]; Predosing regimen, 7 hours, n=2): 23 % Increase
Bronchoconstriction, Lung Resistance (% Increase) ([1]; Predosing regimen, 7.5 hours, n=2): 28 % Increase
Bronchoconstriction, Lung Resistance (% Increase) ([1]; Predosing regimen, 8 hours, n=2): 14 % Increase
Hyperreactivity PC400 ([1]; Predosing regimen, Baseline, Example 52 4.7 mg, ciclesonide 2.2 mg, n=2): 27.5 carbachol breath units
Hyperreactivity PC400 ([1]; Predosing regimen, Post-Antigen (24 hours after challenge), n=2): 26.0 carbachol breath units
Effect on early phase bronchoconstriction ([1]; duration of action regimen): reduction
Effect on late phase bronchoconstriction and development of airway hyperreactivity ([1]; duration of action regimen): complete inhibition
amount of the parent compound over time ([2]; apical and cellular compartments): decreased over time
amount of salmeterol and desciclesonide over time ([2]; cellular compartment): increased in the cellular compartment
